Data reported in patent US10189836B2, “Therapeutic compounds, compositions and methods of use thereof” (Genentech, Inc., priority 2015, dated 2019).

How the values were obtained:
[1] = molecular target: isolated recombinant JAK2 kinase domain (Homo sapiens (Human), UniProt O60674); assay: JAK2 enzyme assay (Caliper LabChip, Ki); type: biochemical; conditions: isolated recombinant JAK2 kinase domain, 0.2 nM enzyme, ATP 25 μM
[2] = molecular target: isolated recombinant JAK1 kinase domain (Homo sapiens (Human), UniProt P23458); assay: JAK1 enzyme assay (Caliper LabChip, Ki); type: biochemical; conditions: isolated recombinant JAK1 kinase domain, 1.5 nM enzyme, ATP 25 μM
Chain of isolated recombinant JAK1 kinase domain (P23458 875-1153): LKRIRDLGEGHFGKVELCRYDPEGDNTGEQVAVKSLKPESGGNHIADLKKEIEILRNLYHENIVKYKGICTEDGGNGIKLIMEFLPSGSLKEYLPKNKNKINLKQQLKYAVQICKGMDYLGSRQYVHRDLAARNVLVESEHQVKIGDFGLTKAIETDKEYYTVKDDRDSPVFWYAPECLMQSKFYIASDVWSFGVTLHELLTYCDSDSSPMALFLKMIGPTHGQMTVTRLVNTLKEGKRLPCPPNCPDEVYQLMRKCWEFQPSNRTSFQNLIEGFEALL

Chain of isolated recombinant JAK2 kinase domain (O60674 849-1124): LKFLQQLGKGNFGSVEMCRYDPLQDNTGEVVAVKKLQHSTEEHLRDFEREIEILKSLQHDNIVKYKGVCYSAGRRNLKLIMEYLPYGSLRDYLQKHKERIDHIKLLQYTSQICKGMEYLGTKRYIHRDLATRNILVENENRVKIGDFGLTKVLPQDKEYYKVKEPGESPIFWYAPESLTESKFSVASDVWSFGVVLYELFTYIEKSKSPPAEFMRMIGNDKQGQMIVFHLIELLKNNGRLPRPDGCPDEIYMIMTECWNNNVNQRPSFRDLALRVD

| Structure (SMILES) | Ki [1] | Ki [2] |
| --- | --- | --- |
| CN1CCN(C(=O)Cn2cc(Nc3nc4c(N5C[C@H]6CC[C@@H](C5)[C@H]6OCc5cccnc5)cccn4n3)cn2)CC1 [Example 84, 1-(4-methylpiperazin-1-yl)-2-[4-[[8-[(1S,5R)-8-(3-pyridylmethoxy)-3-azabicyclo[3.2.1]octan-3-yl]-[1,2,4]triazolo[1,5-a]pyridin-2-yl]amino]pyrazol-1-yl]ethanone] | 0.8 nM | 0.4 nM |
| CN1CCN(C(=O)Cn2cc(Nc3nc4c(N5CC6CCC(C5)N6C(=O)[C@H]5C[C@@H](C(F)(F)F)C5)cccn4n3)cn2)CC1 [Example 15, formic acid; 1-(4-methylpiperazin-1-yl)-2-[4-[[8-[8-[3-(trifluoromethyl)cyclobutanecarbonyl]-3,8-diazabicyclo[3.2.1]octan-3-yl]-[1,2,4]triazolo[1,5-a]pyridin-2-yl]amino]pyrazol-1-yl]ethanone] | 3.7 nM | 1.1 nM |
| CSCCN1CCN(C(=O)Cn2cc(Nc3nc4c(N5CC6CCC(C5)N6C(=O)C5CC(C(F)(F)F)C5)cccn4n3)cn2)CC1 (stereo not shown) [Example 197, 1-[4-(2-methylsulfanylethyl)-piperazin-1-yl]-2-[4-[[8-[8-[3-(trifluoromethyl)-cyclobutanecarbonyl]-3,8-diazabicyclo[3.2.1]octan-3-yl]-[1,2,4]triazolo[1,5-a]pyridin-2-yl]amino]pyrazol-1-yl]ethanone] | 0.3 nM | 0.3 nM |
| CN1CCN(C(=O)Cn2cc(Nc3nc4c(N5C[C@H]6CC[C@@H](C5)[C@H]6OCc5ccccc5)cccn4n3)cn2)CC1 [Example 1, 2-[4-[[8-[(1S,5R)-8-benzyloxy-3-azabicyclo[3.2.1]octan-3-yl]-[1,2,4]triazolo[1,5-a]pyridin-2-yl]amino]pyrazol-1-yl]-1-(4-methylpiperazin-1-yl)ethanone] | 0.6 nM | 0.2 nM |
| CC(C(=O)N1CCN(C)CC1)n1cc(Nc2nc3c(N4CC5CCC(C4)N5C(=O)C4CC(C(F)(F)F)C4)cccn3n2)cn1 (stereo not shown) [Example 123, 1-(4-methylpiperazin-1-yl)-2-[4-[[8-[8-(3-(trifluoromethyl)-cyclobutanecarbonyl]-3,8-diazabicyclo[3.2.1]octan-3-yl]-[1,2,4]triazolo[1,5-a]pyridin-2-yl]amino]pyrazol-1-yl]propan-1-one] | 0.5 nM | 0.5 nM |
| CN1CCN(C(=O)Cn2cc(Nc3nc4c(N5CC6CCC(C5)N6C(=O)CC5CC(F)(F)C5)cccn4n3)cn2)CC1 [Example 8, 2-(3,3-difluorocyclobutyl)-1-[3-[2-[[1-[2-(4-methylpiperazin-1-yl)-2-oxo-ethyl]pyrazol-4-yl]amino]-[1,2,4]triazolo[1,5-a]pyridin-8-yl]-3,8-diazabicyclo[3.2.1]octan-8-yl]ethanone] | 0.7 nM | 0.6 nM |
| CN1CCN(C(=O)Cn2cc(Nc3nc4c(N5CC6CCC(C5)N6C(=O)N5CC(C(F)(F)F)C5)cccn4n3)cn2)CC1 [Example 2, 1-(4-methylpiperazin-1-yl)-2-[4-[[8-[8-[3-(trifluoromethyl)azetidine-1-carbonyl]-3,8-diazabicyclo[3.2.1]octan-3-yl]-[1,2,4]triazolo[1,5-a]pyridin-2-yl]amino]pyrazol-1-yl]ethanone] | 0.4 nM | 0.5 nM |
| O=C(Cn1cc(Nc2nc3c(N4CC5CCC(C4)N5C(=O)CCC(F)(F)F)cccn3n2)cn1)N1CCN(C2CCCCC2)CC1 [Example 153, 1-[3-[2-[[1-[2-(4-cyclohexylpiperazin-1-yl)-2-oxo-ethyl]pyrazol-4-yl]amino]-[1,2,4]triazolo[1,5-a]pyridin-8-yl]-3,8-diazabicyclo[3.2.1]octan-8-yl]-4,4,4-trifluoro-butan-1-one] | 0.3 nM | 0.2 nM |
| CN1CCN(C(=O)Cn2cc(Nc3nc4c(N5CC6CCC(C5)N6c5ccc(Cl)cc5)cccn4n3)cn2)CC1 [Example 113, 2-[4-[[8-[8-(4-chlorophenyl)-3,8-diazabicyclo[3.2.1]octan-3-yl]-[1,2,4]triazolo[1,5-a]pyridin-2-yl]amino]pyrazol-1-yl]-1-(4-methylpiperazin-1-yl)ethanone] | 0.3 nM | 0.2 nM |
| CN1CCN(C(=O)Cn2cc(Nc3nc4c(N5CC6CCC(C5)N6C(=O)NCC(F)(F)F)cccn4n3)cn2)CC1 [Example 110, 3-[2-[[1-[2-(4-methylpiperazin-1-yl)-2-oxo-ethyl]pyrazol-4-yl]amino]-[1,2,4]triazolo[1,5-a]pyridin-8-yl]-N-(2,2,2-trifluoroethyl)-3,8-diazabicyclo[3.2.1]octane-8-carboxamide] | 3.4 nM | 0.9 nM |
| Cc1ncc(S(=O)(=O)N2C3CCC2CN(c2cccn4nc(Nc5cnn(CC(=O)N6CCN(C)CC6)c5)nc24)C3)s1 [Example 138, 1-(4-methylpiperazin-1-yl)-2-[4-[[8-[8-(2-methylthiazol-5-yl)sulfonyl-3,8-diazabicyclo[3.2.1]octan-3-yl]-[1,2,4]triazolo[1,5-a]pyridin-2-yl]amino]pyrazol-1-yl]ethanone] | 0.8 nM | 0.7 nM |
| CN1CCN(C(=O)Cn2cc(Nc3nc4c(N5CC6CCC(C5)N6C(=O)c5ccccc5C#N)cccn4n3)cn2)CC1 [Example 140, 2-[3-[2-[[1-[2-(4-methylpiperazin-1-yl)-2-oxo-ethyl]pyrazol-4-yl]amino]-[1,2,4]triazolo[1,5-a]pyridin-8-yl]-3,8-diazabicyclo[3.2.1]octane-8-carbonyl]benzonitrile] | 0.8 nM | 0.4 nM |
| CN1CCN(C(=O)Cn2cc(Nc3nc4c(N5C[C@H]6CC[C@@H](C5)[C@H]6OCc5ccccc5C#N)cccn4n3)cn2)CC1 [Example 142, 2-[[rac-(1S,5R)-3-[2-[[1-[2-(4-methylpiperazin-1-yl)-2-oxo-ethyl]pyrazol-4-yl]amino]-[1,2,4]triazolo[1,5-a]pyridin-8-yl]-3-azabicyclo[3.2.1]octan-8-yl]oxymethyl]benzonitrile] | 1.7 nM | 0.7 nM |
| CN1CCN(C(=O)Cn2cc(Nc3nc4c(N5CC6CCC(C5)N6S(=O)(=O)c5cccc(Cl)c5)cccn4n3)cn2)CC1 [Example 88, 2-[4-[[8-[8-(3-chlorophenyl)sulfonyl-3,8-diazabicyclo[3.2.1]octan-3-yl]-[1,2,4]triazolo[1,5-a]pyridin-2-yl]amino]pyrazol-1-yl]-1 - (4-methylpiperazin-1-yl)ethanone] | 0.3 nM | 0.3 nM |
| O=C(Cn1cc(Nc2nc3c(N4CC5CCC(C4)N5C(=O)N4CC(C(F)(F)F)C4)cccn3n2)cn1)N1CCC(N2CCOCC2)CC1 [Example 44, 1-(4-morpholino-1-piperidyl)-2-[4-[[8-[8-[3-(trifluoromethyl)azetidine-1-carbonyl]-3,8-diazabicyclo[3.2.1]octan-3-yl]-[1,2,4]triazolo[1,5-a]pyridin-2-yl]amino]pyrazol-1-yl]ethanone] | 0.6 nM | 0.9 nM |
| CN1CCN(C(=O)Cn2cc(Nc3nc4c(N5CC6CCC(C5)N6C(=O)c5ccns5)cccn4n3)cn2)CC1 [Example 87, 2-[4-[[8-[8-(isothiazole-5-carbonyl)-3,8-diazabicyclo[3.2.1]octan-3-yl]-[1,2,4]triazolo[1,5-a]pyridin-2-yl]amino]pyrazol-1-yl]-1-(4-methylpiperazin-1-yl)ethanone] | 0.9 nM | 0.6 nM |
| O=C(Cn1cc(Nc2nc3c(N4CC5CCC(C4)N5C(=O)CCC(F)(F)F)cccn3n2)cn1)N1CCC(N2CCn3nccc3C2)CC1 [Example 179, 1-[3-[2-[[1-[2-[4-(6,7-dihydro-4H-pyrazolo[1,5-a]pyrazin-5-yl)-1-piperidyl]-2-oxo-ethyl]pyrazol-4-yl]amino]-[1,2,4]triazolo[1,5-a]pyridin-8-yl]-3,8-diazabicyclo[3.2.1]octan-8-yl]-4,4,4-trifluoro-butan-1-one; formic acid] | 1.3 nM | 1.6 nM |
| CN1CCN(C(=O)Cn2cc(Nc3nc4c(N5CC6CCC(C5)N6C(=O)c5cccc(Cl)c5)cccn4n3)cn2)CC1 [Example 90, 2-[4-[[8-[8-(3-chlorobenzoyl)-3,8-diazabicyclo[3.2.1]octan-3-yl]-[1,2,4]triazolo[1,5-a]pyridin-2-yl]amino]pyrazol-1-yl]-1-(4-methylpiperazin-1-yl)ethanone] | 2.3 nM | 0.8 nM |
| COC(=O)C1C2CCC1CN(c1cccn3nc(Nc4cnn(CC(=O)N5CCN(C)CC5)c4)nc13)C2 (stereo not shown) [Example 80, methyl 3-[2-[[1-[2-(4-methylpiperazin-1-yl)-2-oxo-ethyl]pyrazol-4-yl]amino]-[1,2,4]triazolo[1,5-a]pyridin-8-yl]-3-azabicyclo[3.2.1]octane-8-carboxylate] | 3.1 nM | 1.5 nM |
| CN1CCN(C(=O)Cn2cc(Nc3nc4c(N5CC6CCC(C5)N6C(=O)c5ccccc5Cl)cccn4n3)cn2)CC1 [Example 114] | 4.8 nM | 1.7 nM |
| CSC1CCN(C(=O)N2C3CCC2CN(c2cccn4nc(Nc5cnn(CC(=O)N6CCN(C)CC6)c5)nc24)C3)CC1 [Example 180, 1-(4-methylpiperazin-1-yl)-2-[4-[[8-[8-(4-methylsulfanylpiperidine-1-carbonyl)-3,8-diazabicyclo[3.2.1]octan-3-yl]-[1,2,4]triazolo[1,5-a]pyridin-2-yl]amino]pyrazol-1-yl]ethanone] | 2.6 nM | 1.3 nM |
| O=C(Cn1cc(Nc2nc3c(N4CC5CCC(C4)N5C(=O)N4CC(C(F)(F)F)C4)cccn3n2)cn1)N1CCN(C2COC2)CC1 [Example 194, 1-[4-(oxetan-3-yl)piperazin-1-yl]-2-[4-[[8-[8-[3-(trifluoromethyl)azetidine-1-carbonyl]-3,8-diazabicyclo[3.2.1]octan-3-yl]-[1,2,4]triazolo[1,5-a]pyridin-2-yl]amino]pyrazol-1-yl]ethanone] | 0.4 nM | 0.9 nM |
| CN1CCN(C(=O)Cn2cc(Nc3nc4c(N5CC6CCC(C5)N6S(=O)(=O)c5cccnc5)cccn4n3)cn2)CC1 [Example 175, 1-(4-methylpiperazin-1-yl)-2-[4-[[8-[8-(3-pyridylsulfonyl)-3,8-diazabicyclo[3.2.1]octan-3-yl]-[1,2,4]triazolo[1,5-a]pyridin-2-yl]amino]pyrazol-1-yl]ethanone] | 0.9 nM | 0.6 nM |
